Experimental data as given in PMC10541456, “A phase I, single‐center, open‐label study to investigate the absorption, distribution, metabolism and excretion of encorafenib following a single oral dose of 100 mg [ ^14C] encorafenib in healthy male subjects” (Pharmacology Research & Perspectives, 2023).

Assays:
[1] = Metabolite profiles in plasma (UPLC, radioactivity detection, MS); type: in vivo, human
Protocol: To the thawed plasma samples (1.5 mL plasma/ time points) two volumes of ice‐cold acetonitrile:ethanol:acetic acid (90:10:0.1, v/v) were added, followed by vortex mixing (10 min) and sonication (10 min). After centrifugation, the supernatants (4.2 mL) were evaporated to near dryness under a gentle stream of nitrogen on a TurboVap LV (Zymark Corp.). The residues were reconstituted in 80 μL of methanol:water:acetic acid (50:50:0.1, v/v) and 45 μL were injected into the ultra‐performance liquid chromatography (UPLC) system with off‐line radioactivity detection.
(§1) Characterization and quantification of the metabolites of encorafenib in select human plasma and excreta samples were performed by the Department of DMPK (Drug Metabolism and Pharmacokinetics) at the Novartis Institutes for Biomedical Research (East Hanover, NJ, USA) using liquid chromatography (LC) coupled to radioactivity detectors and mass spectrometers (MS).
(§2) The analytical system consisted of a Waters ACQUITY UPLC system (Waters), equipped with a Phenomenex Luna PFP column (3 μm, 4.6 × 150 mm) (Phenomenex) and a guard column of the same phase, both maintained at a temperature of 30°C. The mobile phases consisted of 10 mM ammonium acetate containing 0.1% formic acid (v/v) (solvent A) and CH3CN (solvent B). The total run time was 80 min. A linear gradient elution program was used with a flow rate of 1 mL/min as described in Table 1.
(§3) The UPLC effluent was split 4:1, with […] of the total flow introduced to the mass spectrometer for mass spectral analysis and the remaining flow used for radioactivity detection.
For off‐line radioactivity detection, the eluant was collected into 96‐well Lumaplate (Packard Instrument Co) microplates using a Collect Pal fraction collector (Leap Technologies) with a collection time of 10 seconds per well. The LumaPlates were sealed after drying and counted for 10–50 min per well on a Packard Topcount microplate scintillation counter. The structural characterization of metabolites was carried out using the above UPLC profiling method coupled to a two‐channel Z‐spray (LockSprayTM) time‐of‐flight mass spectrometer (Synapt MS). Leucine enkephalin was used as the mass reference standard for exact mass measurements and was delivered via the second spray channel at a flow rate of 5 μL/minute. The mass spectrometer was operated at a resolution of ~10 000 m/ΔmFWHM with spectra being collected from 100 to 1000 amu. The ionization technique employed was positive electrospray. The sprayer voltage was kept at 3100 V and the sampling cone voltage was kept at a potential of 20 V. For the time‐of‐flight MS/MS experiments, trap energies of 25 to 45 eV and transfer energy of 15 eV were used with argon as the collision gas.
(§4) All radioactivity data were transferred to Laura software (version 4.2.2.24, Lab Logic Ltd, UK) to generate and integrate radio‐chromatograms. Radioactive peaks for quantitative analysis were manually selected from the plots. The radioactivity in the region encompassing the beginning and end of the peak was summed. All further calculations were based on radioactivity.
(§5) The percent of radioactivity (%RA) in a particular peak, Z, was calculated as follows in Equation (1): (1) %RAinZ=DPMin PeakZ/totalDPMinallintegrated peaksx100
(§6) The concentration or amount of each component was calculated as % RA (expressed as a fraction) multiplied by the total concentration of radioactivity in plasma, or the percent of dose in the excreta.

CYP3A4 = test system: CYP3A4; design: method as in earlier work; details: cited from earlier work
[2] = Metabolite profiles in excreta (urine, feces); type: in vivo, human
Protocol: A pool of equal percent volume of urine (0–48 h) was prepared for each subject. An aliquot (1.5 mL) of the pooled sample was concentrated ~7‐fold by reducing the volume under nitrogen and then combined with 50 μL methanol:water:acetic acid (50:50:0.1; v/v) followed by centrifugation at 3500 rpm (~1000 × g) for 10 min. The aliquot was then injected onto the UPLC system with off‐line radioactivity detection.
A pool of approximately equal percent by weight of feces (from 0–96 h or 0–120 h) was prepared for each subject. Feces samples were extracted two times with 2 equivalent volumes of acetonitrile: each time with 10 min of vortexing, 10 min of sonication, and centrifugation at 3500 rpm (~1000 × g) for 10 min. An aliquot of the combined supernatant was concentrated approximately 5‐fold by evaporating to dryness under nitrogen and reconstituting in methanol:water:acetic acid (50:50:0.1, v/v) 45 μL of the concentrated, reconstituted samples was injected onto the UPLC system with off‐line radioactivity detection.
as §1, §2, §3
For off‐line radioactivity detection, the eluant was collected into 96‐well Lumaplate (Packard Instrument Co) microplates using a Collect Pal fraction collector (Leap Technologies) with a collection time of 10 seconds per well. The LumaPlates were sealed after drying and counted for 10–50 min per well on a Packard Topcount microplate scintillation counter. The structural characterization of metabolites was carried out using the above UPLC profiling method coupled to a two‐channel Z‐spray (LockSprayTM) time‐of‐flight mass spectrometer (Synapt MS). Leucine enkephalin was used as the mass reference standard for exact mass measurements and was delivered via the second spray channel at a flow rate of 5 μL/minute. […]
as §4, §5, §6

[3] = design: method as in earlier work; details: cited from earlier work
CYP2C19 = test system: CYP2C19; design: method as in earlier work; details: cited from earlier work

## COC(=O)N[C@@H](C)CNc1nccc(-c2cn(C(C)C)nc2-c2cc(Cl)cc(NS(C)(=O)=O)c2F)n1 [encorafenib]
[1]; 100 mg oral [14C] encorafenib
  Mean (range) Circulating Radioactivity in Plasma Based on AUC0-24: 4400 (2340–7140) ngEq/mL*h
[1]; M12.8 value is sum of M12.8 and M13.2
  Mean (range) Circulating Radioactivity in Plasma Based on AUC0-24 (%): 27.5%
[1]; M12.8 value is sum of M12.8 and M13.2, listed as Encorafenib (LGX818)
  Mean (range) Circulating Radioactivity in Plasma Based on AUC0-24 (%): 27.5 (17.9–36.4) %
CYP3A4
  Contribution of CYP3A4 to metabolism: 83%
[2]; feces pool 0–96 h or 0–120 h, average of four subjects
  Component in feces, average: 5.0 % of the administered radioactive dose
[2]; humans
  Metabolism as clearance pathway, share of the recovered radioactive dose: ~ 88%
[2]; in vivo
  CLr as share of the glomerular filtration rate (7.5 L/h): 7%
[2]; male, human, urine and plasma, oral, 100 mg, amount in urine divided by mean plasma AUCinf, read-out: Renal clearance (CLr), estimated mean (converted)
  CL renal: 8.33 mL/min
[2]; urine pool 0–48 h, average of four subjects
  Component in urine, average: 1.8 % of the administered radioactive dose
[3]; after a single dose, dose range 50 mg to 700 mg
  Dose proportionality of systemic exposure: dose‐proportional
[3]
  Variability of apparent oral clearance, encorafenib labeling: 54%
CYP2C19
  Contribution of CYP2C19 to metabolism: 16%
